This assay has as its system Secretion of ApoB. The experiment in a line: Quantification of the secretion of ApoB in HepG2 cells. The following applies: Homo sapiens, HepG2, 24 h, 24 hours of incubation with test compound, immunoprecipitation of apoB from medium, read-out: pIC50 value (=-log IC50 value), secretion of ApoB (converted). It counts as cell-based. In short, it runs like this: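 At 70% confluency, HepG2 cells in MEM with 10% FCS received compound or DMSO carrier (0.4% final) for 24 h. Secreted apoB in cleared medium immunoprecipitated with sheep anti-apoB then rabbit anti-sheep antibody (24 h each, 8° C); pellet radioactivity counted by liquid scintillation; IC50 expressed as pIC50.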
`CCOC(=O)C(c1ccccc1)N1CCC(c2ccc(-n3ccn([C@@H](C)c4cccc5ccccc45)c3=O)cc2)CC1` (some centres unmarked) [Compound 226]: the IC50 is 316 to 3160 nM.

On to `CCOC(=O)C(c1ccccc1)N1CCC(c2ccc(-n3ccn([C@H](C)c4ccccc4)c3=O)cc2)CC1` (some centres unmarked) [Compound 227], for which the IC50 was 31.6 to 316 nM.

As for `CCOC(=O)C(c1ccccc1)N1CCC(c2ccc(-n3ccn([C@@H](C)c4ccccc4)c3=O)cc2)CC1` (some centres unmarked) [Compound 228], the IC50 was 316 to 3160 nM.

Turning to `CCOC(=O)C(c1ccccc1)N1CCC(c2ccc(-n3ccn([C@H](C)c4ccc(Br)cc4)c3=O)cc2)CC1` (some centres unmarked) [Compound 229], the IC50 is 31.6 to 316 nM.

For `CCOC(=O)C(c1ccccc1)N1CCC(c2ccc(-n3ccn([C@@H](C)c4ccc(Br)cc4)c3=O)cc2)CC1` (some centres unmarked) [Compound 230], the IC50 is 316 to 3160 nM.

`CCOC(=O)C(c1ccccc1)N1CCC(c2ccc(-n3ccn([C@@H](C)c4ccc5ccccc5c4)c3=O)cc2)CC1` (some centres unmarked) [Compound 231]: the IC50 is 316 to 3160 nM.

With `CCOC(=O)C(c1ccccc1)N1CCC(c2ccc(-n3ccn([C@H](C)c4ccc5ccccc5c4)c3=O)cc2)CC1` (some centres unmarked) [Compound 232], the IC50 is 31.6 to 316 nM.

With `CCOC(=O)C(c1ccccc1)N1CCC(c2ccc(-n3ccn([C@H](C)c4ccc(C)cc4)c3=O)cc2)CC1` (some centres unmarked) [Compound 233], the IC50 was 31.6 to 316 nM.

As to `CCOC(=O)C(c1ccccc1)N1CCC(c2ccc(-n3ccn([C@@H](C)c4ccc(C)cc4)c3=O)cc2)CC1` (some centres unmarked) [Compound 234], the IC50 is 316 to 3160 nM.

Regarding `CCOC(=O)C(c1ccccc1)N1CCC(c2ccc(-n3ccn([C@H](C)c4ccc(Cl)cc4)c3=O)cc2)CC1` (some centres unmarked) [Compound 235], the half-inhibitory concentration (IC50) was 31.6 to 316 nM.

For `CCOC(=O)C(c1ccccc1)N1CCC(c2ccc(-n3ccn([C@@H](C)c4ccc(Cl)cc4)c3=O)cc2)CC1` (some centres unmarked) [Compound 236], the IC50 was 316 to 3160 nM.

Consider `CCOC(=O)C(c1ccccc1)N1CCC(c2ccc(-n3ccn([C@H](C)c4cccc(OC)c4)c3=O)cc2)CC1` (some centres unmarked) [Compound 237], for which the IC50 was 31.6 to 316 nM.

Take `CCOC(=O)C(c1ccccc1)N1CCC(c2ccc(-n3ccn([C@@H](C)c4cccc(OC)c4)c3=O)cc2)CC1` (some centres unmarked) [Compound 238]: the IC50 was 316 to 3160 nM.

`CCOC(=O)C(c1ccccc1)N1CCC(c2ccc(-n3ccn([C@H](COC)c4ccccc4)c3=O)cc2)CC1` (some centres unmarked) [Compound 239]: the IC50 was 316 to 3160 nM.

For `CCOC(=O)C(c1ccccc1)N1CCC(c2ccc(-n3ccn([C@@H](COC)c4ccccc4)c3=O)cc2)CC1` (some centres unmarked) [Compound 240], the IC50 is 316 to 3160 nM.

On to `CCOC(=O)C(c1ccccc1)N1CCC(c2ccc(-n3ccn([C@@H](C)C4CCCCC4)c3=O)cc2)CC1` (some centres unmarked) [Compound 241], for which the IC50 is 316 to 3160 nM.

As to `CCOC(=O)C(c1ccccc1)N1CCC(c2ccc(-n3ccn(C(CC)c4ccccc4)c3=O)cc2)CC1` (centres unmarked) [Compound 242], the IC50 was 31.6 to 316 nM.

For `CCOC(=O)C(c1ccccc1)C1CCN(c2ccc(-n3ccn([C@@H](C)c4ccc(F)cc4)c3=O)cc2)CC1` (some centres unmarked) [Compound 243], the IC50 was 316 to 3160 nM.

On to `CCOC(=O)C(c1ccccc1)C1CCN(c2ccc(-n3ccn([C@H](C)c4ccc(F)cc4)c3=O)cc2)CC1` (some centres unmarked) [Compound 244], for which the half-inhibitory concentration (IC50) was 31.6 to 316 nM.

With `CCOC(=O)C(c1ccccc1)C1CCN(c2ccc(-n3ccn([C@H](C)c4cccc5ccccc45)c3=O)cc2)CC1` (some centres unmarked) [Compound 245], the IC50 is 316 to 3160 nM.

For `CCOC(=O)C(c1ccccc1)C1CCN(c2ccc(-n3ccn([C@@H](C)c4cccc5ccccc45)c3=O)cc2)CC1` (some centres unmarked) [Compound 246], the IC50 is 316 to 3160 nM.

As for `CCOC(=O)C(c1ccccc1)C1CCN(c2ccc(-n3ccn([C@H](C)c4ccccc4)c3=O)cc2)CC1` (some centres unmarked) [Compound 247], the IC50 is 31.6 to 316 nM.

`CCOC(=O)C(c1ccccc1)C1CCN(c2ccc(-n3ccn([C@@H](C)c4ccccc4)c3=O)cc2)CC1` (some centres unmarked) [Compound 248]: the 50% inhibitory concentration (IC50) is 316 to 3160 nM.

For the compound `CCOC(=O)C(c1ccccc1)C1CCN(c2ccc(-n3ccn([C@H](C)c4ccc(Br)cc4)c3=O)cc2)CC1` (some centres unmarked) [Compound 249], the IC50 was 31.6 to 316 nM.

With `CCOC(=O)C(c1ccccc1)C1CCN(c2ccc(-n3ccn([C@@H](C)c4ccc(Br)cc4)c3=O)cc2)CC1` (some centres unmarked) [Compound 250], the IC50 was 316 to 3160 nM.

As for `CCOC(=O)C(c1ccccc1)C1CCN(c2ccc(-n3ccn([C@@H](C)c4ccc5ccccc5c4)c3=O)cc2)CC1` (some centres unmarked) [Compound 251], the IC50 is 316 to 3160 nM.

With `CCOC(=O)C(c1ccccc1)C1CCN(c2ccc(-n3ccn([C@H](C)c4ccc5ccccc5c4)c3=O)cc2)CC1` (some centres unmarked) [Compound 252], the IC50 was 316 to 3160 nM.

In the case of `CCOC(=O)C(c1ccccc1)C1CCN(c2ccc(-n3ccn([C@H](C)c4ccc(C)cc4)c3=O)cc2)CC1` (some centres unmarked) [Compound 253], the IC50 was 31.6 to 316 nM.

As to `CCOC(=O)C(c1ccccc1)C1CCN(c2ccc(-n3ccn([C@@H](C)c4ccc(C)cc4)c3=O)cc2)CC1` (some centres unmarked) [Compound 254], the IC50 was 316 to 3160 nM.

On to `CCOC(=O)C(c1ccccc1)C1CCN(c2ccc(-n3ccn([C@H](C)c4ccc(Cl)cc4)c3=O)cc2)CC1` (some centres unmarked) [Compound 255], for which the IC50 is 31.6 to 316 nM.

In the case of `CCOC(=O)C(c1ccccc1)C1CCN(c2ccc(-n3ccn([C@@H](C)c4ccc(Cl)cc4)c3=O)cc2)CC1` (some centres unmarked) [Compound 256], the IC50 was 316 to 3160 nM.

Regarding `CCOC(=O)C(c1ccccc1)C1CCN(c2ccc(-n3ccn([C@H](C)c4cccc(OC)c4)c3=O)cc2)CC1` (some centres unmarked) [Compound 257], the IC50 was 316 to 3160 nM.

On to `CCOC(=O)C(c1ccccc1)C1CCN(c2ccc(-n3ccn([C@@H](C)c4cccc(OC)c4)c3=O)cc2)CC1` (some centres unmarked) [Compound 258], for which the IC50 is 316 to 3160 nM.

On to `CCOC(=O)C(c1ccccc1)C1CCN(c2ccc(-n3ccn([C@H](COC)c4ccccc4)c3=O)cc2)CC1` (some centres unmarked) [Compound 259], for which the IC50 is 316 to 3160 nM.

Take `CCOC(=O)C(c1ccccc1)C1CCN(c2ccc(-n3ccn([C@@H](COC)c4ccccc4)c3=O)cc2)CC1` (some centres unmarked) [Compound 260]: the IC50 is 316 to 3160 nM.

Regarding `CCOC(=O)C(c1ccccc1)C1CCN(c2ccc(-n3ccn([C@@H](C)C4CCCCC4)c3=O)cc2)CC1` (some centres unmarked) [Compound 261], the IC50 is 31.6 to 316 nM.

With `CCOC(=O)C(c1ccccc1)C1CCN(c2ccc(-n3ccn([C@H](C)C4CCCCC4)c3=O)cc2)CC1` (some centres unmarked) [Compound 262], the IC50 was 31.6 to 316 nM.

Consider `CCOC(=O)C(c1ccccc1)C1CCN(c2ccc(-n3ccn(C(CC)c4ccccc4)c3=O)cc2)CC1` (centres unmarked) [Compound 263], for which the IC50 is 31.6 to 316 nM.

On to `COC(=O)CC1CCN(c2ccc(-n3ccn(C(C)c4ccccc4)c3=O)cc2)CC1` (centres unmarked) [Compound 264], for which the IC50 is 316 to 3160 nM.

`CCOC(=O)C(c1ccccc1)N1CCN(c2ccc(-n3cnn(C(C)c4ccccc4)c3=O)cc2)CC1` (centres unmarked) [Compound 265]: the IC50 was 316 to 3160 nM.

With `CCOC(=O)C(c1ccccc1)N1CCN(c2ccc(-n3cnn(C(C)c4ccc(F)cc4)c3=O)cc2)CC1` (centres unmarked) [Compound 266], the IC50 was 316 to 3160 nM.

Take `CCOC(=O)C(c1ccccc1)N1CCC(c2ccc(-n3ccn([C@H](C)c4cccc(C(F)(F)F)c4)c3=O)cc2)CC1` (some centres unmarked) [Compound 276]: the IC50 is 31.6 to 316 nM.

For the compound `CCOC(=O)C(c1ccccc1)N1CCC(c2ccc(-n3ccn([C@H](C)c4ccc(C(F)(F)F)cc4)c3=O)cc2)CC1` (some centres unmarked) [Compound 277], the IC50 is 31.6 to 316 nM.

On to `CCOC(=O)C(c1ccccc1)N1CCC(c2ccc(-n3ccn([C@H](C)c4ccccc4F)c3=O)cc2)CC1` (some centres unmarked) [Compound 278], for which the IC50 is 31.6 to 316 nM.

`CCOC(=O)C(c1ccccc1)N1CCC(c2ccc(-n3ccn([C@@H](C)c4ccccc4F)c3=O)cc2)CC1` (some centres unmarked) [Compound 279]: the IC50 was 316 to 3160 nM.

Take `COC(=O)c1cc(NC(=O)C(c2ccccc2)N2CCN(c3ccc(-n4cnn(C(C)c5ccccc5)c4=O)cc3)CC2)ccc1C` (centres unmarked) [Compound 283]: the IC50 was under 31.6 nM.

Consider `COC(=O)c1cc(NC(=O)C(c2ccccc2)N2CCC(c3ccc(-n4cnn(C(C)c5ccccc5)c4=O)cc3)CC2)ccc1C` (centres unmarked) [Compound 284], for which the IC50 is under 31.6 nM.

On to `COC(=O)c1ccc(NC(=O)C(c2ccccc2)N2CCC(c3ccc(-n4cnn(C(C)C)c4=O)cc3)CC2)cc1C` (centres unmarked) [Compound 285], for which the IC50 was under 31.6 nM.

In the case of `COC(=O)c1ccc(CNC(=O)C(c2ccccc2)N2CCN(c3ccc(-n4ccn(C(C)C)c4=O)c(C)c3)CC2)cc1C` (centres unmarked) [Compound 286], the IC50 is 31.6 to 316 nM.

In the case of `COC(=O)c1ccc(CNC(=O)C(c2ccccc2)N2CCN(c3ccc(-n4cnn(C(C)c5ccccc5)c4=O)cc3)CC2)cc1C` (centres unmarked) [Compound 287], the IC50 was 316 to 3160 nM.

As to `COC(=O)c1ccc(CNC(=O)C(c2ccccc2)N2CCC(c3ccc(-n4cnn(C(C)C)c4=O)cc3)CC2)cc1C` (centres unmarked) [Compound 288], the IC50 was 31.6 to 316 nM.

Regarding `COC(=O)c1ccccc1CNC(=O)C(c1ccccc1)N1CCN(c2ccc(-n3ccn(C(C)C)c3=O)c(C)c2)CC1` (centres unmarked) [Compound 289], the IC50 is 31.6 to 316 nM.

As for `COC(=O)c1cccc(CNC(=O)C(c2ccccc2)N2CCN(c3ccc(-n4ccn(C(C)C)c4=O)c(C)c3)CC2)c1` (centres unmarked) [Compound 290], the IC50 is 316 to 3160 nM.

Take `COC(=O)c1cccc(CNC(=O)C(c2ccccc2)N2CCN(c3ccc(-n4ccn(C(C)c5ccccc5)c4=O)cc3)CC2)c1` (centres unmarked) [Compound 291]: the IC50 is 316 to 3160 nM.

Turning to `COC(=O)c1ccc(CNC(=O)C(c2ccccc2)N2CCN(c3ccc(-n4ccn(C(C)C)c4=O)c(C)c3)CC2)cc1` (centres unmarked) [Compound 293], the IC50 is 316 to 3160 nM.

Regarding `COC(=O)c1ccc(CNC(=O)C(c2ccccc2)N2CCN(c3ccc(-n4cnn(C(C)c5ccccc5)c4=O)cc3)CC2)cc1` (centres unmarked) [Compound 294], the half-inhibitory concentration (IC50) is 316 to 3160 nM.

As to `COC(=O)c1ccc(CNC(=O)C(c2ccccc2)N2CCC(c3ccc(-n4cnn(C(C)C)c4=O)cc3)CC2)cc1` (centres unmarked) [Compound 295], the IC50 was 31.6 to 316 nM.

In the case of `CCOC(=O)C(c1ccccc1)N1CCC(c2ccc(-n3ccn([C@H](C)C4CCCCC4)c3=O)cc2)CC1` (some centres unmarked) [Compound 296], the IC50 is 31.6 to 316 nM.

Consider `CCOC(=O)C(c1ccccc1)N1CCN(c2ccc(-n3ccn([C@H](C)c4ccccc4)c3=O)c(C)c2)CC1` (some centres unmarked) [Compound 297], for which the IC50 is 31.6 to 316 nM.

For orientation: IC50 means the concentration at which inhibition is half-maximal.

Source of the values: US7504400B2, “MTP inhibiting aryl piperydines or piperazines substituted with 5-membered heterocycles” (Janssen Pharmaceutica N.V., priority 2004, dated 2009).
